Results reported in US7951232B2, “Surface coating compositions and methods” (Elevance Renewable Sciences, Inc., priority 2006, dated 2011).

Legend:
[1] = system: Candida albicans, ATCC 10231; test: Time-Kill Procedure (ASTM), rate of kill; type: cell-based
Procedure: (§1) The rate of kill for these organisms upon exposure to 9-decenoic acid was determined using the American Society for Testing and Materials (ASTM) procedure entitled “Standard Test Method for the Assessment of Microbiocidal Activity of Test Materials Using a Time-Kill Procedure”, October 1998. This procedure incorporates the recommendations described in the “Manual of Clinical Microbiology,”5th ed., edited by A. B. Balows et al., ASM, Washington, and is directed by the Federal Register, June 1994.
(§2) Stock cultures were transferred into TSB and incubated for 18-24 hours at 37±2° C. A second transfer was made onto TSA plates and were incubated for 18-24 hours at 37±2° C. The plates were removed from incubation and the bacterial growth washed from the agar surface using Butterfield's Phosphate Buffered Dilution Water (PBDW). The bacterial suspension was adjusted to contain approximately 10^8 Colony Forming Units (CFU)/ml with PBDW using spectrophometric methods extant in the laboratory.
(§3) The concentrated 9-decenoic acid was diluted 1:40 in filter sterilized isopropanol to yield a 2.5% stock solution. Subsequent dilutions to the 9-decenoic acid stock solutions were made with sterile Deionized Water (DI) to achieve concentrations of 0.1%, 0.05%, 0.01%, and 0.001%. The pH was determined for each dilution; pH values ranged from 4.4-4.1. Additionally, the 9-decenoic acid stock solution was adjusted to pH 7 with 1 N NaOH and serially diluted with sterile DI to achieve concentrations of 1.0%, 0.75% and 0.5%.
(§4) Compliant with the ASTM procedure cited, for each challenge microorganism a 9.9 ml aliquot of the prepared 9-decenoic acid suspension was added to a sterile tube. A 0.1 ml aliquot of the standardized inoculum was added to the 9-decenoic acid solution representing the start of the test exposure. The inoculated 9-decenoic acid solution was immediately mixed thoroughly. The inoculated suspension was held at room temperature for 0.5, 2, 5, 7 and 10 minute exposure times for tests run at ˜pH 4. The pH 7 tests were held at room temperature for 0.5 and 2 minutes.
(§5) At each exposure sample time, a 1.0 ml aliquot of the inoculated 9-decenoic acid suspension was transferred to 9.0 ml of D/E Neutralizing Broth. Additional ten-fold serial dilutions were made in PBDW and plated in duplicate on TSA. All plates were incubated for 48 hours at 37±2° C. and visually examined for growth. The plates are enumerated, recorded and log kill determined for each time point.
(§6) The following study controls were conducted: culture purity, neutralizer sterility, initial suspension population, test population, neutralization verification and a negative control using isopropanol. Culture purity was verified by performing a streak plate for isolated colonies on the each culture used. All cultures were determined to be pure based on consistent colony morphology typical for the test organism. The neutralizer sterility was confirmed by no growth in an incubated sample.
(§7) The population of the initial and test culture were determined by serial dilution, plating and enumerating after incubation. The initial suspension were determined to be ≧10^4 CFU/ml. The test culture population was used for calculation of the log reduction achieved at each time point.
(§8) Neutralization effectiveness was verified by a filtration test. For each organism, four tubes were prepared with 9 ml D/E Neutralizing Broth and fewer than 100 CFU/ml of the organism. A 1.0 ml aliquot of prepared 9-decenoic acid was added to each tube. Immediately, the entire contents of 2 tubes were filtered through a filtration apparatus and rinsed with sterile diluent. The remaining 2 tubes were held at room temperature for 30 minutes and then the entire contents were filtered using the same procedure. The filters were aseptically transferred to TSA plates and incubated for 48 hours at 37±2° C. and visually examined for growth.
(§9) This control was inoculated, subcultured and incubated as in the test procedure.

[2] = system: Escherichia coli 0157:H7, ATCC 43895; test: Time-Kill Procedure (ASTM), rate of kill; type: cell-based
Procedure: as §1, §2, §3, §4, §5, §6, §7, §8, §9

[3] = system: Escherichia coli, ATCC 11229; test: Time-Kill Procedure (ASTM) at pH 7; type: cell-based
Procedure: as §1, §2, §3, §4, §5, §6, §7, §8, §9

[4] = system: Pseudomonas aeroginosa, ATCC 15442; test: Time-Kill Procedure (ASTM), rate of kill; type: cell-based, Pseudomonas aeruginosa
Procedure: as §1, §2, §3, §4, §5, §6, §7, §8, §9

[5] = 0.01%, pH 4.4, exposure 0.5 minutes
[6] = 0.01%, pH 4.4, exposure 2 minutes
[7] = 0.01%, pH 4.4, exposure 5 minutes
[8] = 0.01%, pH 4.4, exposure 7 minutes
[9] = 0.01%, pH 4.4, exposure 10 minutes
[10] = 0.05%, pH 4.1, exposure 0.5 minutes
[11] = 0.05%, pH 4.1, exposure 2 minutes
[12] = 0.05%, pH 4.1, exposure 5 minutes
[13] = 0.05%, pH 4.1, exposure 7 minutes
[14] = 0.05%, pH 4.1, exposure 10 minutes
[15] = 0.1%, pH 4.1, exposure 0.5 minutes
[16] = 0.1%, pH 4.1, exposure 2 minutes
[17] = 0.1%, pH 4.1, exposure 5 minutes
[18] = 0.1%, pH 4.1, exposure 7 minutes
[19] = 0.1%, pH 4.1, exposure 10 minutes

C=CCCCCCCCC(=O)O [9-decenoic acid]
0 log: Log reduction after exposure at pH 7 ([3]; 0.5%, pH 7, exposure 0.5 minutes) | Log reduction after exposure at pH 7 ([3]; 0.5%, pH 7, exposure 2 minutes)
>4.2 log: Log reduction after exposure at pH 7 ([3]; 0.75%, pH 7, exposure 2 minutes) | Log reduction after exposure at pH 7 ([3]; 1.0%, pH 7, exposure 0.5 minutes) | Log reduction after exposure at pH 7 ([3]; 1.0%, pH 7, exposure 2 minutes)
2.2 log: Log reduction of organisms after exposure [2, 7]
2.7 log: Log reduction of organisms after exposure [2, 9]
1.3 log: Log reduction of organisms after exposure [2, 5]
1.0 log: Log reduction of organisms after exposure [1, 5]
2.9 log: Log reduction of organisms after exposure [1, 6]
>6.2 log: Log reduction of organisms after exposure [2, 10] | Log reduction of organisms after exposure [2, 11] | Log reduction of organisms after exposure [2, 12] | Log reduction of organisms after exposure [2, 13] | Log reduction of organisms after exposure [2, 14] | Log reduction of organisms after exposure [2, 15] | Log reduction of organisms after exposure [2, 16] | Log reduction of organisms after exposure [2, 17] | Log reduction of organisms after exposure [2, 18] | Log reduction of organisms after exposure [2, 19]
1.8 log: Log reduction of organisms after exposure [2, 8]
>6.7 log: Log reduction of organisms after exposure [1, 7] | Log reduction of organisms after exposure [1, 8] | Log reduction of organisms after exposure [1, 9] | Log reduction of organisms after exposure [1, 10] | Log reduction of organisms after exposure [1, 11] | Log reduction of organisms after exposure [1, 12] | Log reduction of organisms after exposure [1, 13] | Log reduction of organisms after exposure [1, 14] | Log reduction of organisms after exposure [1, 15] | Log reduction of organisms after exposure [1, 16] | Log reduction of organisms after exposure [1, 17] | Log reduction of organisms after exposure [1, 18] | Log reduction of organisms after exposure [1, 19]
1.6 log: Log reduction of organisms after exposure [2, 6]
0.83 log: Log reduction after exposure at pH 7 ([3]; 0.75%, pH 7, exposure 0.5 minutes)
>6.1 log: Log reduction of organisms after exposure [4, 5] | Log reduction of organisms after exposure [4, 6] | Log reduction of organisms after exposure [4, 7] | Log reduction of organisms after exposure [4, 8] | Log reduction of organisms after exposure [4, 9] | Log reduction of organisms after exposure [4, 10] | Log reduction of organisms after exposure [4, 11] | Log reduction of organisms after exposure [4, 12] | Log reduction of organisms after exposure [4, 13] | Log reduction of organisms after exposure [4, 14] | Log reduction of organisms after exposure [4, 15] | Log reduction of organisms after exposure [4, 16] | Log reduction of organisms after exposure [4, 17] | Log reduction of organisms after exposure [4, 18] | Log reduction of organisms after exposure [4, 19]
